A short description of data set [1]: Buffer Stability (37° C.).
A short description of data set [2]: CACO2 permeability a-b/b-a. Conditions: human, Caco-2. In kind it is in vitro ADME.
The next data set addresses mTOR (Homo sapiens, UniProt P42345). The data set can be described thus: mTOR Enzyme Assay (DELFIA, purified enzyme). The format is biochemical. Also on record: FLAG.
The nature of data set [3]: Microsome Stability (15 min), human. In kind it is in vitro ADME. The following applies: microsomes.
Data set [4] is described as follows: PAMPA permeability pH 7.4. In general terms: PAMPA measures passive passage across an artificial lipid membrane.
Data set [5] is described as follows: In vivo blood/plasma and tumor levels of prodrug and metabolites after 50 mg, kg po. The following applies: 50 mg.
The nature of data set [6]: Microsome Stability (15 min), rat. The following applies: microsomes. In kind it is in vitro ADME.
Data set [7] can be described thus: Microsome Stability (15 min), nude mouse. The format is in vitro ADME. The following applies: nude, mouse, microsomes.
A short description of another data set: Solubility pH 7.4. The following applies: pH 7.4, aqueous buffer.
For the next data set, the target named is PI3K alpha (Homo sapiens, UniProt P42336). The data set can be described thus: PI3K-alpha Fluorescence Polarization Assay. In kind it is biochemical.
PI3K alpha, sequence (P42336 whole entry, species assumed): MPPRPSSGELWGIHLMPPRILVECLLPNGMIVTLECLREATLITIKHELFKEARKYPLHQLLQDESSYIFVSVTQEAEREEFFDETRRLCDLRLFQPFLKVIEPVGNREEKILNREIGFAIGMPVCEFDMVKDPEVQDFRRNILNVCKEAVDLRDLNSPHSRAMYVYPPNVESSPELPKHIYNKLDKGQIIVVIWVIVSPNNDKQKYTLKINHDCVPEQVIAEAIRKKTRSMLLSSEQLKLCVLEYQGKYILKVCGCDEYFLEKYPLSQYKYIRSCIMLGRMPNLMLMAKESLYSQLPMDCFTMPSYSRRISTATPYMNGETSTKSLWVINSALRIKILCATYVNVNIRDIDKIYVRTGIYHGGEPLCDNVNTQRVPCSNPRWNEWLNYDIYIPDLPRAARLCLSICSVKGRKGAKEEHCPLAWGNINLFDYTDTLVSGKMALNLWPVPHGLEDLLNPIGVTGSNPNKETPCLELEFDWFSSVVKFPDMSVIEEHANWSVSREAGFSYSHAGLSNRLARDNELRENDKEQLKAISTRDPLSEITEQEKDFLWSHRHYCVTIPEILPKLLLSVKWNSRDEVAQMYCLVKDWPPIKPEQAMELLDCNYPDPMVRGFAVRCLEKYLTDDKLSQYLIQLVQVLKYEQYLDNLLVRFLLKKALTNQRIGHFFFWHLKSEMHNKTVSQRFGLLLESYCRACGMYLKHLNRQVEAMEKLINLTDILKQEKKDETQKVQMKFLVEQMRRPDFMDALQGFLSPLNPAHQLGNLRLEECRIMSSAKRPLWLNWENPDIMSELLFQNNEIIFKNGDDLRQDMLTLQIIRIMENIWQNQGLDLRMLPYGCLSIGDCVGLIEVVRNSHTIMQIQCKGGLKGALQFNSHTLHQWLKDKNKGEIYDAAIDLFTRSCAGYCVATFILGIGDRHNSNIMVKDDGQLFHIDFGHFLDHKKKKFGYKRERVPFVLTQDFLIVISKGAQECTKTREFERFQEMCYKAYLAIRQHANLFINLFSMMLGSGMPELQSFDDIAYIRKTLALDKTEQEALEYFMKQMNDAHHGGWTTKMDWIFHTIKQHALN
PI3K alpha, sequence (P27986 whole entry partner, species assumed): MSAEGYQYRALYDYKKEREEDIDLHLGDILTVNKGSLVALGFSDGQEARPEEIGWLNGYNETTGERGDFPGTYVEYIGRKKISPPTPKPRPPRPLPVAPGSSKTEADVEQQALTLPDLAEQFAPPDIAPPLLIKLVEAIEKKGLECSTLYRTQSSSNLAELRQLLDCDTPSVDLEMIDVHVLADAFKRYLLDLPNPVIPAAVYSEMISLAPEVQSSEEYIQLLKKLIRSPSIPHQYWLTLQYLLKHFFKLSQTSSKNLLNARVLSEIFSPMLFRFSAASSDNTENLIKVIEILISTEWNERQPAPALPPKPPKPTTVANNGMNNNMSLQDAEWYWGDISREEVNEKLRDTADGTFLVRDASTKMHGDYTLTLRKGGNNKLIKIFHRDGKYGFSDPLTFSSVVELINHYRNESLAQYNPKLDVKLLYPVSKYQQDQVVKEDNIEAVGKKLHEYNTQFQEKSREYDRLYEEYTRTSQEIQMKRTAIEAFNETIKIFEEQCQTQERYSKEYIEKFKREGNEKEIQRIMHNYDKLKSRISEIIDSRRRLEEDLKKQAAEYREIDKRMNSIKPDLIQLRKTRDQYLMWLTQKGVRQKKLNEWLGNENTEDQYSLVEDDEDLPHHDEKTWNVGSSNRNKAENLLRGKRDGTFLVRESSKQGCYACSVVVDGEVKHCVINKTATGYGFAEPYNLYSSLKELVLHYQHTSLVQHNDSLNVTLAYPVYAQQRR
Data set [8] can be described thus: Plasma Stability (37° C.), nude mouse.
Data set [9] can be described thus: Plasma Stability (37° C.), rat.
Where [10] appears, read: Phase I (NADPH), read-out: Microsome Stability (15 min) T ½ Phase I human.
[11] abbreviates: value after the slash in Table VIc, read-out: Microsome Stability (15 min) T ½ human, second value of cell.
The mark [12] stands for this setting: Phase I (NADPH), read-out: Microsome Stability (15 min) T ½ Phase I rat.
The mark [13] stands for this setting: value after the slash in Table VIc, read-out: Microsome Stability (15 min) T ½ rat, second value of cell.
Where [14] appears, read: Phase I (NADPH), read-out: Microsome Stability (15 min) T ½ Phase I nude mouse.
[15] abbreviates: value after the slash in Table VIc, read-out: Microsome Stability (15 min) T ½ nude mouse, second value of cell.

The structures appear in SMILES notation. Values after ≈ are worked out from the molar mass of the structure shown. Where two headings read alike, the source gives them in different places.

One may read the IC50 as the concentration that inhibits the measured activity by half. On to `COc1ccc2[nH]c(-c3ccccc3)c(C=C3Oc4cc(O)cc(O)c4C3=O)c2c1` [4,6-dihydroxy-2-[(5-methoxy-2-phenyl-1H-indol-3-yl)methylene]-1-benzofuran-3(2H)-one], for which, in data set [1], the “Buffer Stability (37° C.) % Remaining (at 16-23 hours) SGF” value is reported as 95%, the “Buffer Stability (37° C.) % Remaining (at 16-23 hours) SIF” value came to 77%, the “Buffer Stability (37° C.) % Remaining (at 16-23 hours) pH 1” value came to 97% and the “Buffer Stability (37° C.) % Remaining (at 16-23 hours) pH 4.5” value was 96%. Moreover, in data set [1], the “Buffer Stability (37° C.) % Remaining (at 16-23 hours) pH 6.6” value is listed as 83%, the “Buffer Stability (37° C.) % Remaining (at 16-23 hours) pH 7.4” value amounted to 68% and the “Buffer Stability (37° C.) % Remaining (at 16-23 hours) pH 9” value was 72%. Further, in data set [2] (a − b (first value of cell), read-out: CACO2 Pe a − b), the Papp A→B worked out at 12.5 nm/s. Further, the Papp B→A in [2] (b − a (second value of cell), read-out: CACO2 Pe b − a) came to 66.5 nm/s. Besides, the IC50 at mTOR (read-out: mTOR Mean IC50) is 0.08 µM. The half-life in [3] (setting [10]) was 24 min. The half-life in data set [3] (setting [11]) was found to be 5 min. Moreover, the “PAMPA Pe” value in data set [4] is 0 10e−6 cm/s. Further, in [5] (1 h conc.), the “plasma prodrug, Dosed @ 50 mg, kg po (precursor phenolic compound dosed)” value is reported as “bql, bql*”. The “plasma prodrug, Dosed @ 50 mg, kg po (precursor phenolic compound dosed)” value in data set [5] (4 h conc.) was “bql, bql*”. Further, the half-life in data set [6] (setting [12]) is more than 30 min. The half-life in data set [6] (setting [13]) worked out at 5 min. Further, the half-life in data set [7] (setting [14]) turned out to be 29 min. In [7] (setting [15]), the half-life was found to be 5 min.
By solubility is commonly meant the concentration that dissolves in the medium under given conditions. A high value points to much dissolved substance. In “Solubility pH 7.4”, `COc1ccc2c(c1)c(/C=C1\Oc3cc(O)cc(O)c3C1=O)c(C)n2CCN1CCN(C)CC1` [(2Z)-4,6-dihydroxy-2-({5-methoxy-2-methyl-1-[2-(4-methylpiperazin-1-yl)ethyl]-1H-indol-3-yl}methylene)-1-benzofuran-3(2H)-one] displayed a solubility of 0.032 mg/mL (≈ 69 µM). In data set [1], the “Buffer Stability (37° C.) % Remaining (at 16-23 hours) SGF” value amounted to 99%, the “Buffer Stability (37° C.) % Remaining (at 16-23 hours) SIF” value is given as 63%, the “Buffer Stability (37° C.) % Remaining (at 16-23 hours) pH 1” value amounted to 99% and the “Buffer Stability (37° C.) % Remaining (at 16-23 hours) pH 4.5” value turned out to be 78%. In addition, in data set [1], the “Buffer Stability (37° C.) % Remaining (at 16-23 hours) pH 6.6” value turned out to be 63%, the “Buffer Stability (37° C.) % Remaining (at 16-23 hours) pH 7.4” value came to 66% and the “Buffer Stability (37° C.) % Remaining (at 16-23 hours) pH 9” value is given as 79%. Also, the IC50 on mTOR (read-out: mTOR Mean IC50) turned out to be 0.0225 µM. In data set [3] (setting [10]), the half-life came out at 11 min. In data set [3] (setting [11]), the half-life is 17 min. The “PAMPA Pe” value in data set [4] is 0 10e−6 cm/s. The half-life in [6] (setting [12]) is 21 min. Further, the half-life in data set [6] (setting [13]) turned out to be 6 min. Besides, the half-life in [7] (setting [14]) was more than 30 min. The half-life in data set [7] (setting [15]) is 25 min.
`COc1ccc2c(c1)c(/C=C1\Oc3cc(O)ccc3C1=O)c(C)n2CCN1CCN(C)CC1` [(2Z)-6-hydroxy-2-({5-methoxy-2-methyl-1-[2-(4-methylpiperazin-1-yl)ethyl]-1H-indol-3-yl}methylene)-1-benzofuran-3(2H)-one] displayed a solubility in “Solubility pH 7.4” of 0.068 mg/mL (≈ 152 µM). Moreover, the IC50 amounted to 0.0122 µM on PI3K alpha (read-out: PI3K alpha Mean IC50) and 0.325 µM on mTOR (read-out: mTOR Mean IC50). The half-life in data set [3] (setting [10]) was determined as 6 min; in [3] (setting [11]), 5 min; in data set [6] (setting [12]), 12 min; in data set [6] (setting [13]) it was 8 min; in data set [7] (setting [14]), 26 min; in data set [7] (setting [15]), 20 min. Also, in data set [4], the “PAMPA Pe” value is 0.01 10e−6 cm/s.
On to `COc1ccc2c(c1)c(/C=C1\Oc3cc(OC(=O)N4CCOCC4)cc(OC(=O)N4CCOCC4)c3C1=O)cn2CCCN(C)C` [Example 1, (2Z)-2-({1-[3-(dimethylamino)propyl]-5-methoxy-1H-indol-3-yl}methylene)-3-oxo-2,3-dihydro-1-benzofuran-4,6-diyl dimorpholine-4-carboxylate], for which, in “Solubility pH 7.4”, the solubility was more than 0.1 mg/mL. Besides, the IC50 against PI3K alpha is more than 10 µM; on mTOR (read-out: mTOR Mean IC50) it was more than 4 µM. Also, in data set [4], the “PAMPA Pe” value is 1.4 10e−6 cm/s. Besides, the half-life in [6] (setting [12]) is more than 30 min.
Take `COc1ccc2[nH]c(-c3ccccc3)c(/C=C3\Oc4cc(OC(C)=O)cc(OC(C)=O)c4C3=O)c2c1` [Example 3, (2Z)-2-[(5-methoxy-2-phenyl-1H-indol-3-yl)methylene]-3-oxo-2,3-dihydro-1-benzofuran-4,6-diyl diacetate]: in data set [1], the “Buffer Stability (37° C.) % Remaining (at 16-23 hours) SGF” value was found to be 66%, the “Buffer Stability (37° C.) % Remaining (at 16-23 hours) SIF” value worked out at 0%, the “Buffer Stability (37° C.) % Remaining (at 16-23 hours) pH 1” value is given as 2% and the “Buffer Stability (37° C.) % Remaining (at 16-23 hours) pH 4.5” value was determined as 64%. For the same compound, in [1], the “Buffer Stability (37° C.) % Remaining (at 16-23 hours) pH 6.6” value is on record as 0%, the “Buffer Stability (37° C.) % Remaining (at 16-23 hours) pH 7.4” value is given as 0% and the “Buffer Stability (37° C.) % Remaining (at 16-23 hours) pH 9” value worked out at 0%. For the same compound, the IC50 on PI3K alpha (read-out: PI3K alpha Mean IC50) worked out at 0.002 µM. Besides, the half-life in data set [3] (setting [10]) is 12 min. Also, the “PAMPA Pe” value in data set [4] was 0 10e−6 cm/s. In addition, in [8], the “Plasma Stability (37° C.) % Remaining (3-3.5 hours) nude mouse” value was 34%. The half-life in data set [6] (setting [12]) was more than 30 min. The “Plasma Stability (37° C.) % Remaining (3-3.5 hours) rat” value in [9] is 42%. The half-life in [7] (setting [14]) turned out to be 9 min.
Take `COc1ccc2[nH]c(-c3ccccc3)c(/C=C3\Oc4cc(OP(=O)(O)c5ccccc5)ccc4C3=O)c2c1` [Example 26, (2Z)-2-[(5-methoxy-2-phenyl-1H-indol-3-yl)methylene]-3-oxo-2,3-dihydro-1-benzofuran-6-yl hydrogen phenylphosphonate]: the solubility in the data set “Solubility pH 7.4” worked out at 0.011 mg/mL (≈ 21 µM). Also, the IC50 stood at 0.108 µM against PI3K alpha and 2.2 µM at mTOR (read-out: mTOR Mean IC50). Also, the “PAMPA Pe” value in [4] is recorded as 0 10e−6 cm/s. Also, the half-life in data set [6] (setting [12]) was more than 30 min.
In turn, `COc1ccc2c(c1)c(/C=C1\Oc3cc(OC(=O)N4CCN(C)CC4)cc(OC(=O)N4CCN(C)CC4)c3C1=O)cn2CCCN(C)C` [Example 36, (2Z)-2-({1-[3-(dimethylamino)propyl]-5-methoxy-1H-indol-3-yl}methylene)-3-oxo-2,3-dihydro-1-benzofuran-4,6-diyl bis(4-methylpiperazine-1-carboxylate)] yielded a solubility in the data set “Solubility pH 7.4” of 0.036 mg/mL (≈ 54.5 µM). Further, the results for the IC50 against PI3K alpha and on mTOR (read-out: mTOR Mean IC50) were more than 10 µM and 1.07 µM, respectively. The “PAMPA Pe” value in data set [4] is given as 0.23 10e−6 cm/s.
`COc1ccc2c(c1)c(/C=C1\Oc3cc(O)cc(OC(=O)N(C)C)c3C1=O)c(C)n2CCN1CCN(C)CC1` [Example 39, (2Z)-6-hydroxy-2-({5-methoxy-2-methyl-1-[2-(4-methylpiperazin-1-yl)ethyl]-1H-indol-3-yl}methylene)-3-oxo-2,3-dihydro-1-benzofuran-4-yldimethylcarbamate]: in “Solubility pH 7.4”, the solubility was more than 0.1 mg/mL. In addition, the IC50 against PI3K alpha was 0.842 µM; against mTOR it was more than 4 µM. The “PAMPA Pe” value in data set [4] is 0 10e−6 cm/s. The half-life in data set [6] (setting [12]) was found to be 27 min.
In “Solubility pH 7.4”, `CNC(=O)Oc1ccc2c(c1)C(=O)/C(=C/c1cn(CCN3CCN(C)CC3)c3ccc(OC)cc13)O2` [Example 45, (2Z)-2-({5-methoxy-1-[2-(4-methylpiperazin-1-yl)ethyl]-1H-indol-3-yl}methylene)-3-oxo-2,3-dihydro-1-benzofuran-5-yl methylcarbamate] had a solubility of 0.063 mg/mL (≈ 128 µM). In addition, the IC50 on mTOR (read-out: mTOR Mean IC50) was more than 4 µM. Besides, the “PAMPA Pe” value in data set [4] was 0.43 10e−6 cm/s. Besides, the half-life in [6] (setting [12]) came to 9 min.
